Results as given in patent US20150057447A1, “METHOD OF PRODUCING N-PHENYL-N'-PHENYLSULFONYL PIPERAZINE DERIVATIVE AND INTERMEDIATE THEREOF” (priority 2012, published 2015).

Key:
Assay type in all cases: physicochemical
[1] = Evaluation of sublimation (heating under reduced pressure, flask with condenser tube)
Experimental: 5-Chloro-2-(1,3-oxazole-2-yl)phenol (I-3, 3.01 g, 15.4 mmol) which was obtained from the method described in Patent Document 6 was measured in a round-bottomed flask with condenser tube filled with −15° C. cooling liquid, and heated at 40° C. for 6 hours under the reduced pressure (16˜18 mmHg). After 6 hours, 0.02 g of colorless solids were adhered to the condenser tube. The colorless solids were measured by ^1H-NMR (DMSO-d6), it was confirmed to be 5-chloro-2-(1,3-oxazole-2-yl)phenol (I-3).

[2] = Evaluation of sublimation by measuring TG/DTA; conditions: for sublimation (conclusion from TG/DTA): open system
Experimental: Evaluation of Sublimation by Measuring TG/DTA
(1) 5-Chloro-2-(1,3-oxazole-2-yl)phenol (I-3, 5 mg) which was obtained from the method described in Patent Document 6 was measured, and an aluminum pan was stuffed with it and measured in the open system. The measurement conditions are as follows.
Device: TG/DTA 7200 by SII nano technology Measurement temperature range: 30° C.-200° C. Heating rate: 10° C./minute Purge gas: N2 200 mL/minute
(2) 5-Chloro-2-(1,3-oxazole-2-yl)phenol (I-3, about 10 mg) which was obtained from the method described in Patent Document 6 was measured, and an aluminum pan was stuffed with it and measured in the open system. The measurement conditions are as follows.
Device: TG/DTA 7200 by SII nano technology Measurement temperature, range: 40° C. Measurement time: 720 minutes Purge gas: N2 200 mL/minute
(3) Magnesium bis[5-chloro-2-(1,3-oxazole-2-yl)phenolate (I-2, 5 m g) which was obtained from Example 1(1) was measured, and an aluminum pan was stuffed with it and measured in the open system. The measurement conditions are as follows.
Device: TG/DTA 7200 by SII nano technology Measurement temperature program: 30° C.-200° C. Rate of temperature increase: 10° C./minute Purge gas: N2 200 mL/minute

[3] = Evaluation of hygroscopicity by measuring moisture adsorption-desorption isotherm; conditions: 25° C.; for ratio of mass increase, moisture desorption isotherm: 0% RH; for ratio of mass increase relative to the mass at 0% RH, moisture adsorption isotherm: 95% RH
Source text: Moisture adsorption-desorption isotherm is one of means for measuring the adsorption or desorption of moisture. It is a method of measuring the mass change as a function of the relative humidity at constant temperature, and under the conditions where adsorption or desorption is essentially occurring independently of time (equilibrium conditions). Moisture adsorption-desorption isotherm is obtained by plotting relative humidities versus the ratio(%) of the mass increase compared to the mass when the relative humidity of 0%. Accordingly, it is possible to obtain the information about hygroscopicity or dehumidifying nature of the sample.
Moisture adsorption-desorption isotherm of the compounds specified in following (1) to (4) obtained from corresponding examples were measured by the following conditions.
(Operating Method) About 50 mg of the sample was weighted in the mesh stainless-steel sample container, then it was dried at the relative humidity (hereinafter, RH) 0% until the mass change doesn't happen in the device. Temperature and humidity were controlled by the following conditions, and dynamic gravimetric measurement was conducted. Measurement temperature: 25° C. Measurement humidity range: adsorption 0˜95% RH, desorption 95˜0% RH, 5% RH interval Measurement condition: Isotherm condition Herein, isotherm condition means that measurement is move on to next humidity point when the mass change is no longer observed after minimum waiting time or when the equilibrium of mass was not observed until maximum waiting time under constant humidity. The minimum waiting time for equilibrium determination at each humidity: 10 minutes The maximum waiting time for equilibrium determination at each humidity: 2 hours Humidity control: nitrogen and humidification device, 250 mL/minutes (1) Result of the moisture adsorption-desorption isotherm for magnesium bis[5-chloro-2-(1,3-oxazole-2-yl)phenolate] In measuring the moisture adsorption isotherm, in the case of 95% RH, the ratio of mass increase was 2% relative to the mass at 0% RH. In measuring the moisture desorption isotherm, in the case of 0% RH, the ratio of mass increase was 0%. (2) Result of the moisture adsorption-desorption isotherm for calcium bis[5-chloro-2-(1,3-oxazole-2-yl)phenolate] In measuring the moisture adsorption isotherm, in the case of 95% RH, the ratio of mass increase was 3% relative to the mass at 0% RH. In measuring the moisture desorption isotherm, in the case of 0% RH, the ratio of mass increase was 0%.

Row | Molecule | colorless solids adhered to the condenser tube ([1]; 3.01 g heated at 40° C. for 6 hours under reduced pressure (16~18 mmHg), condenser at -15° C.) [g] | sublimation (conclusion from reduced pressure heating test) ([1]; 40° C., 6 hours, 16~18 mmHg) | weight loss (TG/DTA, constant temperature) ([2]; 40° C., 720 minutes, solid state, open aluminum pan, N2 200 mL/minute) [%] | sublimation (conclusion from TG/DTA) [2] | weight loss (TG/DTA) ([2]; observed at 40-85° C., range 30° C.-200° C., heating rate 10° C./minute, open aluminum pan, N2 200 mL/minute) [%] | ratio of mass increase, moisture desorption isotherm [3] [%] | ratio of mass increase relative to the mass at 0% RH, moisture adsorption isotherm [3] [%] | melting and weight loss (TG/DTA) ([2]; about 30° C.-about 180° C., program 30° C.-200° C., 10° C./minute, N2 200 mL/minute)
1 | Oc1cc(Cl)ccc1-c1ncco1 [Compound I-3, 5-chloro-2-(1,3-oxazole-2-yl)phenol] | 0.02 | has sublimation | 1.6 | has sublimation | 0.38 | – | – | –
2 | calcium bis[5-chloro-2-(1,3-oxazole-2-yl)phenolate] [Compound I-7] | – | – | – | – | – | 0 | 3 | –
3 | magnesium bis[5-chloro-2-(1,3-oxazole-2-yl)phenolate] [Compound I-2] | – | – | – | doesn't have sublimation | – | 0 | 2 | not observed
